Results reported in patent publication US20070092551A1, “Therapeutic agent” (TAKARA BIO INC., priority 2003, published 2007).

What was measured:
[1] = test system: mature adipocytes (3T3-L1 cells); experiment: Enhancing action on glucose uptake (2-deoxyglucose) into mature adipocytes; format: cell-based; conditions: Mus musculus, 3T3-L1, X=(S−N)/(P−N) of 2-deoxyglucose uptake, P=insulin 1 μg/mL, read-out: Enhancing Action on Glucose Uptake
Procedure: The induction of differentation into nature adipocytes was carried out by partially modifying the above-mentioned method of Rubin C. S. et al. 3T3-L1 cells (ATCC CCL-92.1) were suspended in a 10% fetal bovine serum (manufactured by Bio Whittaker)-containing Dulbecco's modified Eagle's medium (manufactured by Sigma, D6046) containing 200 μM ascorbic acid so as to have a density of 4×10^3 cells/mL, and the suspension was put in each well of a collagen type I-coated 12-well plate (Iwaki Glass Co., Ltd., code 4815-010) in an amount of 2 mL per well. The cells were cultured at 37° C. for 7 days in the presence of 5% carbon dioxide gas. On the seventh day, the medium was exchanged with 2 mL of a 10% fetal bovine serum (manufactured by Bio Whittaker)-containing Dulbecco's modified Eagle's medium containing 200 μM ascorbic acid, 0.25 μM dexamethasone, 10 μg/mL insulin (manufactured by TAKARA BIO INC.) and 0.5 mM 3-isobutyl-1-methylxanthine (manufactured by nacalai tesque, 19624-86). After 45 hours, the medium was exchanged with 2 mL of a 10% fetal bovine serum-containing Dulbecco's modified Eagle's medium containing 200 μM ascorbic acid and 5 μg/mL insulin. The medium was exchanged on after 2 days and 5 days, and the cells were cultured for 7 days, to give mature adipocytes.
As the evaluation of the enhancing action on glucose uptake, and also as the evaluation of the insulin-mimetic action, the amount of 2-deoxyglucose uptake into mature adipocytes during the stimulation of the test compound in the adipocytes was determined. As a test compound, a compound prepared in the Examples mentioned above or a commercially available compound was used.
After the termination of the culture, the medium was removed, and the cells were washed twice with a 0.1% (w/v) bovine serum albumin (manufactured by Sigma, A8022)-containing Dulbecco's modified Eagle's medium. Thereafter, 1 mL of the same medium containing a test compound in a concentration shown in each of Tables 20 to 23 was put to each well. The cells were cultured overnight at 37° C. in the presence of 5% carbon dioxide gas. Here, a group without containing the test compound was set as a negative control. After the overnight culture, the cells were washed twice with a HEPES buffer (140 mM NaCl, 5 mM KCl, 2.5 mM MgSO4, 1 mM CaCl2, 20 mM HEPES-Na (pH 7.4)). The amount 0.9 mL of the buffer containing a test compound in the same concentration was added to each well. The cells were cultured at 37° C. for 75 minutes. During the culture, as a positive control, there was set a group with addition of insulin to the well without addition of a test compound at a point 45 minutes passed so as to have a final concentration of 1 μg/mL. Thereafter, 100 μL of a HEPES buffer containing 0.5 μCi/mL 2-deoxy-[1,2-^3H(N)]-glucose (manufactured by PerkinElmer Life Sciences Inc., NET549A) and 1 mM 2-deoxyglucose (manufactured by nacalai tesque, 10722-11) was added thereto. The cells were cultured at 37° C. for additional 10 minutes. After the termination of the culture, the supernatant was removed, and the cells were washed three times with a phosphate buffer cooled to 4° C. Thereafter, 0.5 mL of a 1% Nonidet P-40-containing phosphate buffer was added to lyse the cells, whereby 2-deoxy-[1,2-^3H(N)]-glucose subjected to uptake into the cells was eluted. The radioactivity was determined with a liquid scintillation counter LS6500 (manufactured by Beckmann) using 25 μL of the supernatant with Ultima Gold (manufactured by PerkinElmer Life Sciences Inc., 6013329) as a scintillation cocktail. The enhancing action on glucose uptake was calculated by the following calculation formula, and shown by four ranks of +++, ++, + and +/−. • S: Amount of 2-deoxyglucose uptake in the presence of a test compound; • N: Amount of 2-deoxyglucose uptake in the negative control; and • P: Amount of 2-deoxyglucose uptake in the positive control; X=(S−N)/(P−N) (Judgment of Enhancing Action for 2-Deoxyglucose Uptake)

3T3-L1 cells = experiment: Induction of adipocyte differentiation (amount of triglyceride biosynthesis); format: cell-based; conditions: Mus musculus, 3T3-L1, X=(S−N)/(P−N) of amount of triglyceride, P=insulin positive control, read-out: Action for Induction of Differentiation
Procedure: Induction of adipocyte differentiation was carried out by partially modifying the above-mentioned method of Rubin C. S. et al. In addition, as a test compound, a compound prepared in Examples mentioned above or a commercially available compound was used. 3T3-L1 cells (ATCC CCL-92.1) were suspended in a 10% fetal bovine serum (manufactured by Bio Whittaker)-containing Dulbecco's modified Eagle's medium (manufactured by Sigma, D6046) containing 200 μM ascorbic acid so as to have a density of 4×10^3 cells/mL, and the suspension was put in each well of a 12-well microtiter plate in an amount of 2 ml per well. The cells were cultured at 37° C. for 7 days in the presence of 5% carbon dioxide gas. On the seventh day, the medium was exchanged with a 10% fetal bovine serum (manufactured by Bio Whittaker)-containing Dulbecco's modified Eagle's medium containing 200 μM ascorbic acid and 0.25 μM dexamethasone, and a test compound dissolved in dimethyl sulfoxide in a concentration shown in each of Tables 16 to 19 was added to each well. Here, there were set a group with addition of 4 μL of an aqueous solution containing 5 mg/mL insulin (manufactured by TAKARA BIO INC.) as a positive control, and a group with addition of dimethyl sulfoxide as a negative control. After 45 hours, the medium was exchanged with a 10% fetal bovine serum-containing Dulbecco's modified Eagle's medium containing 200 μM ascorbic acid. A test compound, 2 μL of an aqueous solution containing 5 mg/mL insulin as a positive control, or dimethyl sulfoxide as a negative control was put to each well in the same concentration. The cells were cultured for additional 7 days. In addition, the medium was exchanged on after 2 days and after 5 days, and at that time, a test compound, 2 μL of an aqueous solution containing 5 mg/mL insulin as a positive control, or dimethyl sulfoxide as a negative control was put to each well in the same concentration.
The amount of triglyceride in the adipocytes was determined as an index of induction of differentiation into mature adipocytes, and also, as the evaluation of insulin-mimetic action.
After the termination of the culture, the medium was removed, and the cells were washed twice with a phosphate buffered saline. One milliliter of a solvent of hexane:isopropanol=3:2 was added to the cells. The mixture was allowed to stand at room temperature for 30 minutes, and thereafter the supernatant was collected. The procedures were repeated again, and 2 mL of the supernatant was concentrated to dryness. The precipitate was dissolved in 100 μL of isopropanol, and the amount of triglyceride contained in 10 μL of the solution was determined using a triglyceride E-test (manufactured by Wako Pure Chemical Industries, Ltd., code 432-40201). In addition, all the determinations were carried out twice. The action for induction of differentiation was calculated by the following calculation formula, and shown by four ranks of +++, ++, + and +/−. • S: Amount of triglyceride in the presence of a test compound; • N: Amount of triglyceride in the negative control; and • P: Amount of triglyceride in the positive control; X=(S−N)/(P−N) (Judgment of Action for Induction of Differentiation)

O=C(/C=C/c1ccc(Cl)cc1)c1ccccc1OCc1ccccc1 [Compound (C066), 4-chloro-2′-benzyloxychalcone]
activation at 10 µM [1]: 60 to 100% | activation at 30 µM [1]: 60 to 100% | activation at 3 µM (3T3-L1 cells): 60 to 100% | activation at 10 µM (3T3-L1 cells): > 100%

COc1ccc(C(=O)/C=C/c2ccc(O)cc2)c(O)c1C/C=C(\C)C/C=C/C(C)(C)OO [TB8, 1-[2-hydroxy-3-(7-hydroperoxy-3,7-dimethyl-2,5-octadienyl)-4-methoxyphenyl]-3-(4-hydroxyphenyl)-2-propen-1-one]
activation at 3 µM [1]: 15 to 30% | activation at 10 µM [1]: 60 to 100% | activation at 30 µM [1]: 60 to 100% | activation at 3 µM (3T3-L1 cells): 30 to 60% | activation at 10 µM (3T3-L1 cells): > 100%

COc1ccc(/C=C/C(=O)c2c(OC)cc(OC)c(CC=C(C)C)c2O)cc1 [Compound (C046), 4,4′,6′-trimethoxy-2′-hydroxy-3′-prenylchalcone]
activation at 3 µM [1]: 15 to 30% | activation at 10 µM [1]: > 100% | activation at 30 µM [1]: > 100% | activation at 3 µM (3T3-L1 cells): 60 to 100% | activation at 10 µM (3T3-L1 cells): > 100%

COc1ccc(C(=O)/C=C/c2ccc(OC(C)=O)cc2)c(OC(C)=O)c1CC=C(C)C [Compound (C032), 4,2′-diacetoxy-3′-prenyl-4′-methoxychalcone]
activation at 3 µM [1]: > 100% | activation at 10 µM [1]: > 100% | activation at 30 µM [1]: > 100% | activation at 1 µM (3T3-L1 cells): 60 to 100% | activation at 3 µM (3T3-L1 cells): > 100% | activation at 10 µM (3T3-L1 cells): > 100%

CC(C)=CCC/C(C)=C/Cc1c(OCc2ccccc2)ccc(C(=O)/C=C/c2ccc(O)cc2)c1O [Compound (C073), 4,2′-dihydroxy-3′-geranyl-4′-benzyloxychalcone]
activation at 3 µM [1]: 15 to 30% | activation at 10 µM [1]: 15 to 30% | activation at 3 µM (3T3-L1 cells): 15 to 30%

CC(C)=CCC/C(C)=C/Cc1c(O)ccc(C(=O)/C=C/c2ccc(Cl)cc2)c1O [Compound (C074), 4-chloro-2′,4′-dihydroxy-3′-geranylchalcone]
activation at 30 µM [1]: 30 to 60% | activation at 3 µM (3T3-L1 cells): 15 to 30% | activation at 10 µM (3T3-L1 cells): 30 to 60%

COc1ccc(C(=O)/C=C/c2ccc(O)cc2)c(OC(C)=O)c1C/C=C(\C)CCC=C(C)C [Compound (C064-2), 2′-acetoxy-3′-geranyl-4-hydroxy-4′-methoxychalcone]
activation at 3 µM [1]: 15 to 30% | activation at 10 µM [1]: 30 to 60% | activation at 30 µM [1]: > 100% | activation at 3 µM (3T3-L1 cells): > 100% | activation at 10 µM (3T3-L1 cells): > 100%

CC(C)=CCc1c(O)ccc(C(=O)/C=C/c2ccc(O)cc2)c1O [Isobavachalcone]
activation at 3 µM [1]: 15 to 30% | activation at 10 µM [1]: 60 to 100% | activation at 30 µM [1]: > 100% | activation at 3 µM (3T3-L1 cells): 30 to 60% | activation at 10 µM (3T3-L1 cells): 60 to 100%

O=C(/C=C/c1ccc(O)cc1)c1ccc(O)c(Cc2ccccc2)c1O [Compound (C057), 4,2′,4′-trihydroxy-3′-benzylchalcone]
activation at 10 µM [1]: 15 to 30% | activation at 30 µM [1]: > 100% | activation at 3 µM (3T3-L1 cells): 30 to 60% | activation at 10 µM (3T3-L1 cells): > 100%

COc1ccc(/C=C/C(=O)c2ccc(OC)c(CC=C(C)C)c2O)c(O)c1CC=C(C)C [Compound (C072), 2,2′-dihydroxy-3,3′-diprenyl-4,4′-dimethoxychalcone]
activation at 30 µM [1]: 30 to 60% | activation at 3 µM (3T3-L1 cells): > 100% | activation at 10 µM (3T3-L1 cells): > 100%

COc1ccc(C(=O)/C=C/c2ccco2)c(O)c1CC=C(C)C [Compound (FUR-1), 3-(2-furyl)-1-(2-hydroxy-3-prenyl-4-methoxyphenyl)-2-propen-1-one]
activation at 10 µM [1]: 15 to 30% | activation at 30 µM [1]: 60 to 100% | activation at 1 µM (3T3-L1 cells): 15 to 30% | activation at 3 µM (3T3-L1 cells): 30 to 60% | activation at 10 µM (3T3-L1 cells): > 100%

COc1ccc(C(=O)/C=C/c2ccc(OC(C)=O)cc2)c(O)c1CC=C(C)C [Compound (C078), 4-acetoxy-2′-hydroxy-3′-prenyl-4′-methoxychalcone]
activation at 10 µM [1]: 15 to 30% | activation at 30 µM [1]: > 100% | activation at 10 µM (3T3-L1 cells): 30 to 60% | activation at 30 µM (3T3-L1 cells; 30 μM): > 100%

COc1ccc(C(=O)CCc2ccc(O)cc2)c(O)c1CCC(C)C [Compound (C033), 1-(2-hydroxy-3-(3-methylbutyl)-4-methoxyphenyl)-3-(4-hydroxyphenyl)-propan-1-one]
activation at 3 µM [1]: 30 to 60% | activation at 10 µM [1]: 30 to 60% | activation at 30 µM [1]: 60 to 100% | activation at 3 µM (3T3-L1 cells): > 100% | activation at 10 µM (3T3-L1 cells): > 100%

CCOC(C)(C)C(O)CC/C(C)=C/Cc1c(O)ccc(C(=O)/C=C/c2ccc(O)cc2)c1O (stereo not drawn) [TB6, 1-[3-(7-ethoxy-6-hydroxy-3,7-dimethyl-2-octenyl)-2,4-dihydroxyphenyl]-3-(4-hydroxyphenyl)-2-propen-1-one]
activation at 30 µM [1]: 30 to 60% | activation at 3 µM (3T3-L1 cells): 15 to 30% | activation at 10 µM (3T3-L1 cells): > 100%
